SMILES strings stand for the structures.

For assay [1], the system named is Human Aortic Endothelial Cells (HAECs). Nature of the assay: In vitro cell proliferation test (MTT colorimetry), endothelial cells. As to conditions: 72 hours, based on the control group, average of 6 tests.
Assay [2] has as its system Human Aortic Smooth Muscle Cells (HASMCs). Nature of the assay: In vitro cell proliferation test (MTT colorimetry), smooth muscle cells. The conditions noted are these: 72 hours, based on the control group, average of 6 tests.
The mark [3] stands for this setting: 1 μmol of each drug in culture medium.
The mark [4] stands for this setting: 6 μmol of each drug in culture medium.
Setting [5] is: 10 μmol of each drug in culture medium.

As to `CC(C)c1ccc2oc3nc(N)c(C(=O)O)cc3c(=O)c2c1` [Amlexanox, 2-amimo-7-isopropyl-5-oxo-5H-[1]benzopyrano-[2,3,-b]pyridine-3-carboxylic acid], the “Endothelial cell inhibition rate (%)” value in assay [1] (setting [3]) is 0.9%; in assay [1] (setting [4]), 2.8%; in assay [1] (setting [5]), 3.5%. Further, the entries for the “Smooth muscle cell inhibition rate (%)” value in assay [2] (setting [3]), in assay [2] (setting [4]) and in assay [2] (setting [5]) were 11.6%, 19.0% and 23.4%, respectively.

As for `CO[C@H]1C[C@@H]2CC[C@@H](C)[C@@](O)(O2)C(=O)C(=O)N2CCCC[C@H]2C(=O)O[C@H]([C@H](C)C[C@@H]2CC[C@@H](O)[C@H](OC)C2)CC(=O)[C@H](C)/C=C(\C)[C@@H](O)[C@@H](OC)C(=O)[C@H](C)C[C@H](C)/C=C/C=C/C=C/1C` [Rapamycin, rapamycin], the “Endothelial cell inhibition rate (%)” value is reported as 7.7% in assay [1] (setting [3]), 16.0% in assay [1] (setting [4]) and 21.8% in assay [1] (setting [5]). Further, the entries for the “Smooth muscle cell inhibition rate (%)” value in assay [2] (setting [3]) and in assay [2] (setting [4]) were 9.1% and 18.9%, respectively.

The values are drawn from patent publication US11547702B2, “Use of amlexanox” (SHANGHAI MICROPORT MEDICAL (GROUP) CO., LTD., priority 2016, dated 2023).
